Key:
[1] = test system: cerebral cortical neural cells; test: Lactate dehydrogenase (LDH) cytotoxicity assay after oxygen-glucose deprivation; type: cell-based, neonatal rat; settings: 2 mM NaP, positive control; 24 hours after injury; vs untreated oxygen-glucose deprivation group, p<0.05
Description: Culture of cerebral cortical neural cells: The brains of neonatal rats were dissected, the meninges removed, and the cerebral cortex isolated. The cortical tissues were digested with papain, single cells collected, and plated onto lysine-treated coverslips and cultured in Neurobasal™ serum-free medium. To mimic hypoxic-ischemic encephalopathy injury in vitro, the Neurobasal medium was replaced with DMEM medium at 7 days in vitro (DIV7), and cells were cultured under 21% O2/5% CO2 for 2.5 hours to serve as the control group, or Neurobasal medium replaced with glucose-free DMEM medium and cells cultured under 0% O2/5% CO2 for 2.5 hours to serve as the oxygen-glucose deprivation treatment group. After treatment, both groups were returned to Neurobasal medium and cultured normally under 21% O2/5% CO2 for 24 hours. […]
Lactate dehydrogenase (LDH) kit cytotoxicity assay: After 24 hours of normal culture, collect the cell culture supernatant from each group, add the LDH assay working solution, mix thoroughly, and incubate at room temperature in the dark for 30 minutes. Then, measure the absorbance at 490 nm and calculate the LDH release level, which indicates cytotoxicity. […]

[2] = test system: cerebral cortical neural cells; test: MTT assay for cell viability after oxygen-glucose deprivation; type: cell-based, neonatal rat; settings: 2 mM NaP, positive control; 24 hours after injury; vs untreated oxygen-glucose deprivation group, p<0.05
Description: Culture of cerebral cortical neural cells: The brains of neonatal rats were dissected, the meninges removed, and the cerebral cortex isolated. The cortical tissues were digested with papain, single cells collected, and plated onto lysine-treated coverslips and cultured in Neurobasal™ serum-free medium. To mimic hypoxic-ischemic encephalopathy injury in vitro, the Neurobasal medium was replaced with DMEM medium at 7 days in vitro (DIV7), and cells were cultured under 21% O2/5% CO2 for 2.5 hours to serve as the control group, or Neurobasal medium replaced with glucose-free DMEM medium and cells cultured under 0% O2/5% CO2 for 2.5 hours to serve as the oxygen-glucose deprivation treatment group. After treatment, both groups were returned to Neurobasal medium and cultured normally under 21% O2/5% CO2 for 24 hours.
S1 Pretreatment: At the start of the oxygen-glucose deprivation treatment, cells were simultaneously treated with S1 (final concentrations of 0.01 μM, 0.1 μM, 1 μM, or 10 μM), or with the scrambled peptide Tat-NRRRNSKLQHKKY (SEQ ID NO: 10), or with NaP (Davunetide) as a control.
MTT assay for cell viability: After 24 hours of normal culture, MTT solution was added to each group and cultured for an additional 4 hours. […] Then, measure the absorbance at 490 nm and calculate the MTT formation level, which indicates cell viability. […]

Question: For `CC[C@H](C)[C@H](NC(=O)[C@H](CO)NC(=O)[C@@H](NC(=O)[C@@H]1CCCN1C(=O)[C@H](C)NC(=O)[C@@H](N)CC(N)=O)C(C)C)C(=O)N1CCC[C@H]1C(=O)N[C@@H](CCC(N)=O)C(=O)O` [NaP, Davunetide], which LDH release levels [1] is on record?
Answer: significantly reduced LDH release levels

Question: What about the MTT formation levels [2] of the same molecule?
Answer: significantly increased MTT formation levels
